Values after ≈ are worked out from the molar mass of the structure shown. Where two headings read alike, the source gives them in different places.
Assays:
[1] = Cytotoxicity assay (MTT), determination of CC50; settings: human
Experimental: (§1) The cytotoxic effect of compounds on A549 cells was determined by the MTT method, as previously described [36]. The MTT assay is the enzyme-based method, which use the 3-(4,5-dimethylthiazol-2-yl)-2,5-diphenyltetrazolium bromide as a reductive coloring agent. Briefly, subconfluent monolayers of A549 cells (2 × 10^4 cell/well in Dulbecco’s Minimal Essential Medium (DMEM) supplemented with 5% fetal bovine serum (FBS), antibiotics (100 U/mL penicillin and 100 μg/mL streptomycin), and 2 mM L-glutamine (all from Sigma Aldrich, St. Louis, MO, USA) were incubated in 96-multi-well plates in the presence of dilutions of the compounds ranging from 100 μg/mL to 0.5 μg/mL, in triplicate for 48 h at 37 °C in a humidified atmosphere with 5% CO2. After 48 h, 20 μL of MTT solution (Promega, Madison, WI, USA) was added to each well, and the microplates were kept at 37 °C/5% CO2 for 3 h. Then, the solubilization/stop solution containing SDS-HCl (100 μL/well) was added, and the absorbance values of the wells were measured at 570 nm using a 96-well plate reader (Multiskan RC spectrophotometer, Thermo Labsystems, Waltham, MA, USA). Cell viability (%) was calculated for each concentration as Abs treated/Abs control × 100, where Abs treated and Abs control are the absorbance readings for the wells with and without the tested compounds, respectively. The 50% cytotoxic concentration (CC50) was defined as the concentration that reduced cell viability by 50% with respect to controls without drugs. The CC50 value was calculated from the corresponding dose–response curves.

[2] = system: T47D (human ductal carcinoma); assay: Cytotoxic activity, WST-1 assay; format: cell-based; settings: for IC50 ± SD / IC50: 72 h, Neg = negative in the concentration used; for IC50: Homo sapiens
[3] = system: cytopathogenic bovine orphan virus (ECBO) strain LCR-4; assay: Time of addition assay (post-adsorption), CPE/MTT in A549 cells; format: cell-based, cytopathogenic bovine orphan virus (BEV-1); settings: for EC50: A549; for antiviral activity: ECBO, A549 cells, CC20 concentration
[4] = system: Colo-829 (human malignant melanoma); assay: Cytotoxic activity, WST-1 assay; format: cell-based; settings: Colo-829, 72 h, Neg = negative in the concentration used; for IC50: Homo sapiens
SNB-19 (glioblastoma) = assay: Cytotoxic activity, WST-1 assay; format: cell-based, human; settings: SNB-19, 72 h, Neg = negative in the concentration used; for IC50: Homo sapiens
[5] = system: C-32 (human amelanotic melanoma); assay: Cytotoxic activity, WST-1 assay; format: cell-based; settings: C-32, 72 h, Neg = negative in the concentration used; for IC50: Homo sapiens
[6] = system: MCF-7 (human adenocarcinoma); assay: Cytotoxic activity, WST-1 assay; format: cell-based; settings: MCF-7, 72 h, Neg = negative in the concentration used; for IC50: Homo sapiens, MCF7
[7] = system: SKOV-3 human ovarian cancer cell line; assay: Inhibition of tumor cell proliferation (MTT); settings: SK-OV-3, 96 h, read-out: Max. Inhibition (% of Control)
Experimental: Antiproliferative activities of the compounds were measured by the MTT assay using A549 cells and a human ovarian cancer cell line SKOV-3 (adenocarcinoma ATCC® HTB77™). A total of 2 × 10^3 cells in DMEM medium supplemented with 5% FBS were placed in each well of a 96-well flat-bottom plate. After 24 h of incubation at 37 °C in 5% CO2, the growth medium was replaced by media containing different concentrations of the derivatives. Control cultures received cisplatin 0.1–10 μg/mL, and blank wells contained 100 μL of growth medium with no cells. After 96 h of incubation, cell proliferation was determined by the colorimetric MTT assay (570 nm) reading for each concentration compared with the control. At least three replicates for each sample were used to determine the cell proliferation.

[8] = system: vesicular stomatitis virus (VSV); format: cell-based; settings: A549 cells, CC20 concentration
[9] = system: herpes simplex virus type-1 (HSV-1); assay: Time of addition assay, CPE/MTT in A549 cells; format: cell-based; settings: HSV-1, A549 cells, CC20 concentration
[10] = system: human adenovirus type-5 (HAdV-5); assay: Time of addition assay, CPE/MTT in A549 cells; format: cell-based; settings: for antiviral activity: HAdV-5, A549 cells, CC20 concentration
in vitro = settings: human
Experimental: as §1

[11] = system: Escherichia coli ATCC 25922; assay: Broth microdilution method (MIC, MBC)
Experimental: (§2) The minimal inhibitory concentration (MIC) and minimal bactericidal concentration (MBC) were determined by the broth microdilution method, according to the Clinical and Laboratory Standards Institute [32, 33].
(§3) The antibacterial and antifungal activities of compounds were evaluated using the following strains: Staphylococcus aureus (ATCC 25923), Enterococcus faecalis (ATCC 29212), Escherichia coli (ATTC 25922), Pseudomonas aeruginosa (ATTC 27853), Klebsiella pneumoniae ATTC 700603), and Candida albicans (ATTC 10231). Cells were cultured for 24–48 h on Columbia agar or Sabouraud agar (C. albicans) in a saline solution (0.9% NaCl) and adjusted to a 0.5 McFarland density standard (1.5 × 10^8 CFU/mL). The final density of microorganisms was approximately 3 × 10^5 CFU/mL. The solutions of compounds were added to the medium at various concentrations (0.06 μM–2 mM). […] The experiments were performed in triplicate.

[12] = system: Klebsiella pneumoniae ATCC 700603; assay: Broth microdilution method (MIC, MBC)
Experimental: as §2, §3

[13] = selectivity index, ratio of CC50 to EC50, ECBO in A549 cells

Row | Compound | IC50 ± SD [2] | EC50 [3] | SI [3, 13] | IC50 [4] | IC50 (SNB-19 (glioblastoma)) | IC50 ± SD [5] | IC50 ± SD [6] | IC50 [2] | IC50 [5] | melting point | CC50 at 48 h (in vitro) | IC50 ± SD (SNB-19 (glioblastoma)) | also measured
1 | C=C(C)[C@@H]1CC[C@]2(CO)CC[C@]3(C)[C@H](CC[C@@H]4[C@@]5(C)CC[C@H](O)C(C)(C)[C@@H]5CC[C@]43C)[C@@H]12 [Betulin 1, Betulin] | Neg | 0.5 µg/mL (≈ 1.13 µM) | 37.0 | 15.3 ± 2.2 µM | 17.7 ± 1.2 µM | Neg | Neg | – | – | – | – | – | CC50 at 48 h [1]: 18.5 µg/mL (≈ 41.8 µM); SI ([3]; selectivity index, ratio of CC50 to EC50, ECBO in A549 cells, listed as betulin 1): 37; inhibition at 2.5 µg/mL [7]: 30%
2 | C#CC(=O)OC[C@]12CCC(C(=C)C)C1C1CCC3[C@@]4(C)CC[C@H](O)C(C)(C)C4CC[C@@]3(C)[C@]1(C)CC2 (stereo partly shown) [Compound 3, 28-O-propynoylbetulin] | – | – | – | 1.7 ± 0.08 µM | 4.2 ± 0.3 µM | – | – | 110.8 ± 0.9 µM | 16.7 ± 0.8 µM | – | – | – | antiviral activity [8]: did not exhibit antiviral activity; antiviral activity [3]: did not exhibit antiviral activity; IC50 [6]: 102 ± 1.4 µM; antiviral activity [9]: did not exhibit antiviral activity; antiviral activity [10]: did not exhibit antiviral activity
3 | C#CC(=O)OC[C@]12CCC(C(=C)C)C1C1CCC3[C@@]4(C)CC[C@H](OC(=O)C#C)C(C)(C)C4CC[C@@]3(C)[C@]1(C)CC2 (stereo partly shown) [Compound 4, 3,28-O,O’-di(propynoyl)betulin] | Neg | – | – | 9.7 ± 1.5 µM | 13.1 ± 1.3 µM | – | Neg | – | 121 ± 4.1 µM | – | – | – | antiviral activity [8]: did not exhibit antiviral activity; antiviral activity [3]: did not exhibit antiviral activity; antiviral activity [9]: did not exhibit antiviral activity; antiviral activity [10]: did not exhibit antiviral activity
4 | C=C(C)C1CC[C@]2(COC(=O)c3cn(CSc4ccccc4)nn3)CC[C@]3(C)C(CCC4[C@@]5(C)CC[C@H](O)C(C)(C)C5CC[C@]43C)C12 (stereo partly shown) [Compound 5d, 28-O-(1-Phenylthiomethyl-1H-1,2,3-triazol-4-yl)carbonylbetulin] | – | – | – | 100 ± 5.5 µM | 13 ± 0.09 µM | Neg | Neg | 52.5 ± 1.4 µM | – | 143 to 146 °C | – | – | inhibition at 10 µg/mL [7]: 40%
5 | C=C(C)C1CCC2(COC(=O)c3cn(C4CC(n5cc(C)c(=O)[nH]c5=O)OC4CO)nn3)CCC3(C)C(CCC4C5(C)CCC(O)C(C)(C)C5CCC43C)C12 (stereo not shown) [Compound 5e] | total decay of cytotoxic activity and Neg | 1 µg/mL (≈ 1.31 µM) | 10.3 | 35.1 ± 6.2 µM | – | – | Neg | – | 75.2 ± 3.7 µM | 181 to 185 °C | 10.3 µg/mL (≈ 13.5 µM) | Neg | MBC ([11]; ATCC25922): 7.8 µM (≈ 5.94 µg/mL); MIC ([11]; ATCC25922, 18 h): 1.95 µM (≈ 1.49 µg/mL); bactericidal capacity ([11]; judged from MBC:MIC ratio): bactericidal activity; MBC:MIC ratio [12]: > 4; MBC ([12]; ATCC700603): 3.9 µM (≈ 2.97 µg/mL); MIC ([12]; ATCC700603, 18 h): 0.95 µM (≈ 0.724 µg/mL); bactericidal capacity ([12]; judged from MBC:MIC ratio): bacteriostatic; inhibition at 50 µg/mL [7]: 75%; SI ([10]; anti-HAdV-5 activity, ratio of CC50 to EC50, data not shown): 6
6 | C=C(C)C1CCC2(COC(=O)c3cn(C4OC(CO)C(O)C(O)C4O)nn3)CCC3(C)C(CCC4C5(C)CCC(O)C(C)(C)C5CCC43C)C12 [Compound 5f, 28-O-[1-(1-Deoxy-β-D-glucopyranosyl)-1H-1,2,3-triazol-4-yl]carbonylbetulin] | total decay of cytotoxic activity and Neg | 5 µg/mL (≈ 7.14 µM) | 20.0 | 110 ± 7.2 µM | – | Neg | Neg | – | – | 184 to 186 °C | 100 µg/mL (≈ 143 µM) | Neg | inhibition at 25 µg/mL [7]: 35%
7 | C=C(C)C1CC[C@]2(COC(=O)c3cn(CCCO)nn3)CC[C@]3(C)C(CCC4[C@@]5(C)CC[C@H](O)C(C)(C)C5CC[C@]43C)C12 (stereo partly shown) [Compound 5h, 28-O-[1-(3-Hydroxypropyl)-1H-1,2,3-triazol-4-yl]carbonylbetulin] | – | 0.5 µg/mL (≈ 0.839 µM) | 55.5 | 6.2 ± 0.6 µM | 9.9 ± 0.7 µM | – | – | 1.3 ± 0.05 µM | 80.3 ± 5.8 µM | – | 27.7 µg/mL (≈ 46.5 µM) | – | potency relative to cisplatin ([2]; ratio of IC50 values): 19 fold; IC50 [6]: 15.5 ± 1.1 µM
8 | C=C(C)C1CC[C@]2(COC(=O)c3cn(CC(N)C(=O)O)nn3)CC[C@]3(C)C(CCC4[C@@]5(C)CC[C@H](O)C(C)(C)C5CC[C@]43C)C12 (stereo partly shown) [Compound 5j, 2-Amino-3-[4-(28-O-betulinylcarbonyl)-1H-1,2,3-triazol-1-yl]propanoic acid] | total decay of cytotoxic activity and Neg | 5 µg/mL (≈ 8 µM) | 20.0 | 3.3 ± 1.1 µM | – | Neg | Neg | – | – | 265 to 269 °C | 100 µg/mL (≈ 160 µM) | Neg | inhibition at 10 µg/mL [7]: 40%
9 | C=C(C)C1CCC2(COC(=O)c3cn(C4OC(CO)C(O)C(O)C4O)nn3)CCC3(C)C(CCC4C5(C)CCC(OC(=O)c6cn(C7OC(CO)C(O)C(O)C7O)nn6)C(C)(C)C5CCC43C)C12 [Compound 6f, 3,28-O,O’-Di[1-(1-deoxy-β-D-glucopyranosyl-1H-1,2,3-triazol-4-yl)carbonyl]betulin] | total decay of cytotoxic effect and Neg | 5 µg/mL (≈ 5.22 µM) | 20.0 | – | – | total decay of cytotoxic effect and Neg | total decay of cytotoxic effect and Neg | – | – | – | 100 µg/mL (≈ 104 µM) | total decay of cytotoxic effect and Neg | IC50 ± SD [4]: total decay of cytotoxic effect and Neg
10 | C=C(C)C1CC[C@]2(COC(=O)c3cn(CCCO)nn3)CC[C@]3(C)C(CCC4[C@@]5(C)CC[C@H](OC(=O)c6cn(CCCO)nn6)C(C)(C)C5CC[C@]43C)C12 (stereo partly shown) [Compound 6h, 3,28-O,O’-Di[1-(3-hydroxypropyl-1H-1,2,3-triazol-4-yl)carbonyl]betulin] | – | 0.25 µg/mL (≈ 0.334 µM) | – | 6.5 ± 1 µM | 68.3 ± 0.9 µM | – | – | 62.4 ± 1.1 µM | 9.1 ± 0.2 µM | 172 to 176 °C | 29.8 µg/mL (≈ 39.8 µM) | – | antiviral activity [8]: essentially inactive; IC50 [6]: 11.7 ± 1.2 µM; antiviral activity [9]: essentially inactive; inhibition at 50 µg/mL [7]: 70%; antiviral activity [10]: essentially inactive
11 | NC(=O)c1ncn([C@@H]2O[C@H](CO)[C@@H](O)[C@H]2O)n1 [Ribavirin, reference compound] | – | 10 µg/mL (≈ 40.9 µM) | – | – | – | – | – | – | – | – | – | – | CC50 at 48 h ([1]; A549 cells): 100 µg/mL (≈ 409 µM); SI [3]: 10.0; inhibition at 1.5 µg/mL [7]: 30%

Source: paper PMC6150379, “Novel Triazole Hybrids of Betulin: Synthesis and Biological Activity Profile” (Molecules : A Journal of Synthetic Chemistry and Natural …, 2017)
